Measurements from patent US20210252036A1, “METHODS OF TREATING CANCER BY INHIBITING UBIQUITIN CONJUGATING ENZYME E2 K (UBE2K)” (Berg LLC, priority 2018, published 2021).
Where two headings read alike, the source gives them in different places.

How the values were obtained:
UBE2K = biological target: T1, UBE2K (Homo sapiens, UniProt P61086); conditions: Strickson et al., 2013; cited from earlier work
T1 sequence (P61086 1-200): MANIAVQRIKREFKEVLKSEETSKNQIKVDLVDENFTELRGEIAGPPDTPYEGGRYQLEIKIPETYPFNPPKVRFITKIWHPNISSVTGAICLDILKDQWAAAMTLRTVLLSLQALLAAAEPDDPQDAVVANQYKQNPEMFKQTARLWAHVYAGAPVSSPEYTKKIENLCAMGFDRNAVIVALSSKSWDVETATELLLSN

T47D cells = experiment: Cell number/viability by Cell Titer Fluor after siRNA transfection; assay type: cell-based; conditions: Homo sapiens, doxorubicin 72 h
Method: (§1) For initial validation studies, UBE2K was transiently knocked down using an siRNA mediated approach in Miapaca2, HepG2, SKHEP1, Hep3B, MDAMB231, SKBR3, T47D and BT549 cells. A non-targeting (NT) siRNA sequence was used as a control. Samples for confirmation of knock down at transcript and protein level were harvested 24 and 96 h post transfection, and the effect of UBE2K transient knock down was assessed on cell viability/cell number using Cell Titer Fluor at 96 h post transfection. In parallel, the effect of siRNA mediated UBE2K knock down on doxorubicin (cell death causing agent) sensitivity was assessed in the above mentioned cell lines. Cell were exposed to doxorubicin for 72 h beginning 24 h post transfection.

[1] = system: SKHEP1 hepatocellular carcinoma cells; experiment: as above; assay type: cell-based; conditions: Homo sapiens, SK-HEP1, doxorubicin 72 h
Method: as §1

BT549 cells = experiment: as above; assay type: cell-based; conditions: Homo sapiens, BT-549, doxorubicin 72 h
Method: as §1

IC50 (T47D cells; UBE2K siRNA knockdown, read-out: UBE2K siRNA 95% CI IC50)	IC50 (T47D cells; control siRNA, read-out: Control siRNA 95% CI KSO)	IC50 ([1]; SKHEP1, UBE2K siRNA knockdown, read-out: UBE2K siRNA 95% CI IC50)	IC50 ([1]; SKHEP1, control siRNA, read-out: Control siRNA 95% CI KSO)	IC50 (BT549 cells; BT549, UBE2K siRNA knockdown, read-out: UBE2K siRNA 95% CI IC50)	IC50 (BT549 cells; BT549, control siRNA, read-out: Control siRNA 95% CI KSO)	Compound	Loading of ubiquitin onto E2 conjugating enzymes such as UBE2K (UBE2K)
						Cc1ccc(S(=O)(=O)/C=C/C#N)cc1 [BAY 11-7082, (E)3-[(4-Methylphenyl)sulfonyl]-2-propenenitrile]	inhibit the loading of ubiquitin onto E2 conjugating enzymes
0.0961 to 0.22 µM	0.112 to 0.29 µM	0.0101 to 0.0137 µM	0.00858 to 0.0113 µM	0.0912 to 0.243 µM	0.165 to 0.381 µM	COc1cccc2c1C(=O)c1c(O)c3c(c(O)c1C2=O)C[C@@](O)(C(=O)CO)C[C@@H]3O[C@H]1C[C@H](N)[C@H](O)[C@H](C)O1 [doxorubicin]	
